Molecules are shown by their SMILES.

The experiment concerns fowl roundworm (Ascaridia galli). As to the kind of experiment: Anthelmintic test in chickens artificially infected with fowl roundworm, single oral dose in gelatin capsule, worm bodies counted within 48 hours (Test Examples A1, B1, C1, D1). Format: in vivo. As to conditions: Ascaridia galli, po, 48 h, chickens, one value per chicken (No.1-3), read-out: Anthelmintic effect after 48 hours. Summed up:
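Anthelmintic percentage derived from counts of worms passed within 48 h plus worms left in the intestine after killing at 48 h. Infection confirmed by fecal examination in three-bird groups; compound given orally once in gelatin capsules at 10/20 (A1, B1), 30/50 (C1) or 15/30 (D1) mg/kg.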

As to `C=CCN(OC)C(C)=O` [Compound B1, N-allyl-N-acetyl-O-methylhydroxylamine], the inhibition in vivo at 30 mg/kg (30 mg/Kg orally in gelatin capsule) was 100%. For the same compound, the inhibition in vivo at 50 mg/kg (50 mg/Kg orally in gelatin capsule) was found to be 100%.
